According to ChEMBL document CHEMBL4002566, “S-substituted 3,5-dinitrophenyl 1,3,4-oxadiazole-2-thiols and tetrazole-5-thiols as highly efficient antitubercular agents” (Eur J Med Chem, 2017):

Legend:
Staphylococcus aureus [1] = test: Antibacterial activity against Staphylococcus aureus ATCC 6538 after 48 hrs by broth microdilution method; assay type: functional; settings: ATCC 6538, 48 h
Klebsiella pneumoniae [2] = test: Antibacterial activity against extended spectrum beta-lactamase producing Klebsiella pneumoniae HK14368/08 after 48 hrs by broth microdilution method; assay type: functional; settings: HK14368/08, 48 h
Enterococcus sp. [3] = test: Antibacterial activity against Enterococcus sp. HK14365/08 after 48 hrs by broth microdilution method; assay type: functional; settings: HK14365/08, 48 h
Aspergillus fumigatus [4] = test: Antifungal activity against Aspergillus fumigatus 231 after 48 hrs by broth microdilution method; assay type: functional; settings: Aspergillus fumigatus, 231, 48 h
Pichia kudriavzevii [5] = test: Antifungal activity against Candida krusei E28 after 48 hrs by broth microdilution method; assay type: functional; settings: E28, 48 h
[6] = Selectivity index, ratio of IC50 for human HepG2 cells to MIC for Mycobacterium tuberculosis; assay type: toxicity; settings: read-out: Selectivity Index
Huh-7 = test: Cytotoxicity against human HuH7 cells assessed as cell viability after 48 hrs by MTS assay; assay type: cell-based; settings: Huh-7, 48 h
Mycobacterium kansasii [7] = test: Antimycobacterial activity against Mycobacterium kansasii 6509/96 clinical isolate after 7 days by micromethod; assay type: functional; settings: 6509/96, 168 h
A-431 = test: Cytotoxicity against human A431 cells assessed as cell viability after 48 hrs by MTS assay; assay type: cell-based; settings: A-431, 48 h
[8] = Cytotoxicity against human A431 cells assessed as cell viability at 30 uM after 48 hrs by MTS assay relative to control; assay type: cell-based, A-431; settings: read-out: Activity
Candida albicans [9] = test: Antifungal activity against Candida albicans ATCC 44859 after 24 hrs by broth microdilution method; assay type: functional; settings: ATCC 44859, 24 h
Escherichia coli [10] = test: Antibacterial activity against Escherichia coli ATCC 8739 after 24 hrs by broth microdilution method; assay type: functional; settings: ATCC 8739, 24 h
Pichia kudriavzevii [11] = test: Antifungal activity against Candida krusei E28 after 24 hrs by broth microdilution method; assay type: functional; settings: E28, 24 h
Staphylococcus aureus [12] = test: Antibacterial activity against methicillin-resistant Staphylococcus aureus HK5996/08 after 24 hrs by broth microdilution method; assay type: functional; settings: HK5996/08, 24 h
Escherichia coli [13] = test: Antibacterial activity against Escherichia coli ATCC 8739 after 48 hrs by broth microdilution method; assay type: functional; settings: ATCC 8739, 48 h
HepG2 = test: Cytotoxicity against human HepG2 cells assessed as cell viability after 48 hrs by MTS assay; assay type: cell-based; settings: HepG2, 48 h
[14] = test system: Staphylococcus epidermidis; test: Antibacterial activity against Staphylococcus epidermidis HK6996/08 after 48 hrs by broth microdilution method; assay type: functional; settings: HK6996/08, 48 h
[15] = Cytotoxicity against MDCK cells assessed as cell viability at 30 uM after 48 hrs by MTS assay relative to control; assay type: cell-based, Canis lupus familiaris; settings: dog, read-out: Activity
Candida albicans [16] = test: Antifungal activity against Candida albicans ATCC 44859 after 48 hrs by broth microdilution method; assay type: functional; settings: ATCC 44859, 48 h
Trichosporon asahii [17] = test: Antifungal activity against Trichosporon asahii 1188 after 48 hrs by broth microdilution method; assay type: functional; settings: Trichosporon asahii, 1188, 48 h
Mycobacterium kansasii [18] = test: Antimycobacterial activity against Mycobacterium kansasii 6509/96 clinical isolate after 14 days by micromethod; assay type: functional; settings: 6509/96, 336 h
Lichtheimia corymbifera [19] = test: Antifungal activity against Absidia corymbifera 272 after 48 hrs by broth microdilution method; assay type: functional; settings: Lichtheimia corymbifera, 272, 48 h
Trichosporon asahii [20] = test: Antifungal activity against Trichosporon asahii 1188 after 24 hrs by broth microdilution method; assay type: functional; settings: Trichosporon asahii, 1188, 24 h
Mycobacterium kansasii [21] = test: Antimycobacterial activity against Mycobacterium kansasii CNCTC My 235/80 after 7 days by micromethod; assay type: functional; settings: CNCTC My 235/80, 168 h
Klebsiella pneumoniae [22] = test: Antibacterial activity against Klebsiella pneumoniae HK11750/08 after 48 hrs by broth microdilution method; assay type: functional; settings: HK11750/08, 48 h
Mycobacterium avium [23] = test: Antimycobacterial activity against Mycobacterium avium CNCTC My 330/88 after 21 days by micromethod; assay type: functional; settings: CNCTC My 330/88, 504 h
Mycobacterium kansasii [24] = test: Antimycobacterial activity against Mycobacterium kansasii 6509/96 clinical isolate after 21 days by micromethod; assay type: functional; settings: 6509/96, 504 h
Pseudomonas aeruginosa [25] = test: Antibacterial activity against Pseudomonas aeruginosa ATCC 9027 after 24 hrs by broth microdilution method; assay type: functional; settings: ATCC 9027, 24 h
[26] = test system: Trichophyton mentagrophytes; test: Antifungal activity against Trichophyton mentagrophytes 445 after 120 hrs by broth microdilution method; assay type: functional; settings: Trichophyton mentagrophytes, 445, 120 h
Nakaseomyces glabratus [27] = test: Antifungal activity against Candida glabrata 20/I after 48 hrs by broth microdilution method; assay type: functional
Klebsiella pneumoniae [28] = test: Antibacterial activity against Klebsiella pneumoniae HK11750/08 after 24 hrs by broth microdilution method; assay type: functional; settings: HK11750/08, 24 h
[29] = test system: Mycobacterium tuberculosis; test: Antimycobacterial activity against Mycobacterium tuberculosis CNCTC My 331/88 after 21 days by micromethod; assay type: functional; settings: CNCTC My 331/88, 504 h
Mycobacterium kansasii [30] = test: Antimycobacterial activity against Mycobacterium kansasii CNCTC My 235/80 after 14 days by micromethod; assay type: functional; settings: CNCTC My 235/80, 336 h
Staphylococcus aureus [31] = test: Antibacterial activity against methicillin-resistant Staphylococcus aureus HK5996/08 after 48 hrs by broth microdilution method; assay type: functional; settings: HK5996/08, 48 h
Candida tropicalis [32] = test: Antifungal activity against Candida tropicalis 156 after 24 hrs by broth microdilution method; assay type: functional; settings: Candida tropicalis, 156, 24 h
[33] = Cytotoxicity against human HuH7 cells assessed as cell viability at 30 uM after 48 hrs by MTS assay relative to control; assay type: cell-based, Huh-7; settings: read-out: Activity
Lichtheimia corymbifera [34] = test: Antifungal activity against Absidia corymbifera 272 after 24 hrs by broth microdilution method; assay type: functional; settings: Lichtheimia corymbifera, 272, 24 h
[35] = test system: Trichophyton mentagrophytes; test: Antifungal activity against Trichophyton mentagrophytes 445 after 72 hrs by broth microdilution method; assay type: functional; settings: Trichophyton mentagrophytes, 445, 72 h
Mycobacterium avium [36] = test: Antimycobacterial activity against Mycobacterium avium CNCTC My 330/88 after 14 days by micromethod; assay type: functional; settings: CNCTC My 330/88, 336 h
Pseudomonas aeruginosa [37] = test: Antibacterial activity against Pseudomonas aeruginosa ATCC 9027 after 48 hrs by broth microdilution method; assay type: functional; settings: ATCC 9027, 48 h
[38] = test system: Staphylococcus epidermidis; test: Antibacterial activity against Staphylococcus epidermidis HK6996/08 after 24 hrs by broth microdilution method; assay type: functional; settings: HK6996/08, 24 h
Klebsiella pneumoniae [39] = test: Antibacterial activity against extended spectrum beta-lactamase producing Klebsiella pneumoniae HK14368/08 after 24 hrs by broth microdilution method; assay type: functional; settings: HK14368/08, 24 h
Aspergillus fumigatus [40] = test: Antifungal activity against Aspergillus fumigatus 231 after 24 hrs by broth microdilution method; assay type: functional; settings: Aspergillus fumigatus, 231, 24 h
Mycobacterium kansasii [41] = test: Antimycobacterial activity against Mycobacterium kansasii CNCTC My 235/80 after 21 days by micromethod; assay type: functional; settings: CNCTC My 235/80, 504 h
Nakaseomyces glabratus [42] = test: Antifungal activity against Candida glabrata 20/I after 24 hrs by broth microdilution method; assay type: functional
Candida tropicalis [43] = test: Antifungal activity against Candida tropicalis 156 after 48 hrs by broth microdilution method; assay type: functional; settings: Candida tropicalis, 156, 48 h
[44] = test system: Mycobacterium tuberculosis; test: Antimycobacterial activity against Mycobacterium tuberculosis CNCTC My 331/88 after 14 days by micromethod; assay type: functional; settings: CNCTC My 331/88, 336 h
[45] = Cytotoxicity against human HepG2 cells assessed as cell viability at 30 uM after 48 hrs by MTS assay relative to control; assay type: cell-based; settings: read-out: Activity
Staphylococcus aureus [46] = test: Antibacterial activity against Staphylococcus aureus ATCC 6538 after 24 hrs by broth microdilution method; assay type: functional; settings: ATCC 6538, 24 h
MDCK = test: Cytotoxicity against MDCK cells assessed as cell viability after 48 hrs by MTS assay; assay type: cell-based; settings: Canis lupus familiaris
Enterococcus sp. [47] = test: Antibacterial activity against Enterococcus sp. HK14365/08 after 24 hrs by broth microdilution method; assay type: functional; settings: HK14365/08, 24 h

O=[N+]([O-])c1cc(-c2nnc(SCc3ccc(Br)cc3)o2)cc([N+](=O)[O-])c1
125 µM: MIC (Mycobacterium avium [23]) | MIC (Mycobacterium avium [36])
143%: viability at 48 h, 30 µM [33]
> 30 µM: IC50 (Huh-7) | IC50 (A-431) | IC50 (HepG2) | IC50 (MDCK)
114%: viability at 48 h, 30 µM [15]
0.06 µM: MIC (Mycobacterium kansasii [24]) | MIC [29] | MIC (Mycobacterium kansasii [41])
99%: viability at 48 h, 30 µM [8]
113%: viability at 48 h, 30 µM [45]
0.03 µM: MIC (Mycobacterium kansasii [7]) | MIC (Mycobacterium kansasii [18]) | MIC (Mycobacterium kansasii [21]) | MIC (Mycobacterium kansasii [30]) | MIC [44]
> 1000: selectivity ratio [6]
> 125 µM: MIC (Staphylococcus aureus [1]) | MIC (Klebsiella pneumoniae [2]) | MIC (Enterococcus sp. [3]) | MIC (Aspergillus fumigatus [4]) | MIC (Pichia kudriavzevii [5]) | MIC (Candida albicans [9]) | MIC (Escherichia coli [10]) | MIC (Pichia kudriavzevii [11]) | MIC (Staphylococcus aureus [12]) | MIC (Escherichia coli [13]) | MIC [14] | MIC (Candida albicans [16]) | MIC (Trichosporon asahii [17]) | MIC (Lichtheimia corymbifera [19]) | MIC (Trichosporon asahii [20]) | MIC (Klebsiella pneumoniae [22]) | MIC (Pseudomonas aeruginosa [25]) | MIC [26] | MIC (Nakaseomyces glabratus [27]) | MIC (Klebsiella pneumoniae [28]) | MIC (Staphylococcus aureus [31]) | MIC (Candida tropicalis [32]) | MIC (Lichtheimia corymbifera [34]) | MIC [35] | MIC (Pseudomonas aeruginosa [37]) | MIC [38] | MIC (Klebsiella pneumoniae [39]) | MIC (Aspergillus fumigatus [40]) | MIC (Nakaseomyces glabratus [42]) | MIC (Candida tropicalis [43]) | MIC (Staphylococcus aureus [46]) | MIC (Enterococcus sp. [47])

O=[N+]([O-])c1cc(-c2nnc(SCc3ccc(Cl)cc3)o2)cc([N+](=O)[O-])c1
100%: viability at 48 h, 30 µM [8]
> 125 µM: MIC (Aspergillus fumigatus [4]) | MIC (Pichia kudriavzevii [5]) | MIC (Candida albicans [9]) | MIC (Pichia kudriavzevii [11]) | MIC (Candida albicans [16]) | MIC (Trichosporon asahii [17]) | MIC (Lichtheimia corymbifera [19]) | MIC (Trichosporon asahii [20]) | MIC [26] | MIC (Nakaseomyces glabratus [27]) | MIC (Candida tropicalis [32]) | MIC (Lichtheimia corymbifera [34]) | MIC [35] | MIC (Aspergillus fumigatus [40]) | MIC (Nakaseomyces glabratus [42]) | MIC (Candida tropicalis [43])
126%: viability at 48 h, 30 µM [33] | viability at 48 h, 30 µM [45]
> 30 µM: IC50 (Huh-7) | IC50 (A-431) | IC50 (HepG2) | IC50 (MDCK)
> 1000: selectivity ratio [6]
0.125 µM: MIC (Mycobacterium kansasii [41])
> 500 µM: MIC (Staphylococcus aureus [1]) | MIC (Klebsiella pneumoniae [2]) | MIC (Enterococcus sp. [3]) | MIC (Escherichia coli [10]) | MIC (Staphylococcus aureus [12]) | MIC (Escherichia coli [13]) | MIC [14] | MIC (Klebsiella pneumoniae [22]) | MIC (Pseudomonas aeruginosa [25]) | MIC (Klebsiella pneumoniae [28]) | MIC (Staphylococcus aureus [31]) | MIC (Pseudomonas aeruginosa [37]) | MIC [38] | MIC (Klebsiella pneumoniae [39]) | MIC (Staphylococcus aureus [46]) | MIC (Enterococcus sp. [47])
110%: viability at 48 h, 30 µM [15]
0.06 µM: MIC [29] | MIC (Mycobacterium kansasii [30])
0.03 µM: MIC (Mycobacterium kansasii [7]) | MIC (Mycobacterium kansasii [18]) | MIC (Mycobacterium kansasii [21]) | MIC (Mycobacterium kansasii [24]) | MIC [44]
